Reference: ChEMBL document CHEMBL5465560, “Selectivity Literature for EUbOPEN Chemogenomic Library” (2024)
Values belong to the compound of their own block, whether it stands above or below them.

Columns and labels:
[1] = molecular target: T1, Beta-adrenergic receptor kinase 1 (Homo sapiens) (UniProt P25098); assay: Selectivity interaction (KinomeScan (DiscoverX)) EUB0001049a ADRBK1; conditions: at 1 µM
T1 sequence (whole entry): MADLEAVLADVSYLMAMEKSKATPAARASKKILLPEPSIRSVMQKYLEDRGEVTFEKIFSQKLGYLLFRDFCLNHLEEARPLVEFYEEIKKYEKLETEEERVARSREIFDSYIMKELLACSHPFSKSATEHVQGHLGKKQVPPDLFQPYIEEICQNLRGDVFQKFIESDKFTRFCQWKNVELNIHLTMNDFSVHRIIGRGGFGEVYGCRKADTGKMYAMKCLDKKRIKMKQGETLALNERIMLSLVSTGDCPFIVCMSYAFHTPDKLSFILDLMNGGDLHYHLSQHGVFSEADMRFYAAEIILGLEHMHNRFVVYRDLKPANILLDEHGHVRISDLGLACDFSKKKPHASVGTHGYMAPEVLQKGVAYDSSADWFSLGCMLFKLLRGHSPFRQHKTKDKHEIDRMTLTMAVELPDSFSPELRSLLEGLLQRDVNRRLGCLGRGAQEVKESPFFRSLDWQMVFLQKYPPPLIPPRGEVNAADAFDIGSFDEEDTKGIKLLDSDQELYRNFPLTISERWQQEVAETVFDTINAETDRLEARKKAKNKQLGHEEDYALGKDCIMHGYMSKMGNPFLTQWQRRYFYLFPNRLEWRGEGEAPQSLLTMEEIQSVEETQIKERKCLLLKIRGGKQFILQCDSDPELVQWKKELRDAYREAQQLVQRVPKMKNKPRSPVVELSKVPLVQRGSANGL

[2] = molecular target: Mitogen-activated protein kinase kinase kinase kinase 1 (Homo sapiens) (UniProt Q92918); assay: Selectivity interaction (KinomeScan (DiscoverX)) EUB0000045b MAP4K1
[3] = molecular target: T2, Dual specificity mitogen-activated protein kinase kinase 7 (Homo sapiens) (UniProt O14733); assay: Selectivity interaction (KinomeScan (DiscoverX)) EUB0000045b MAP2K7
T2 sequence (whole entry): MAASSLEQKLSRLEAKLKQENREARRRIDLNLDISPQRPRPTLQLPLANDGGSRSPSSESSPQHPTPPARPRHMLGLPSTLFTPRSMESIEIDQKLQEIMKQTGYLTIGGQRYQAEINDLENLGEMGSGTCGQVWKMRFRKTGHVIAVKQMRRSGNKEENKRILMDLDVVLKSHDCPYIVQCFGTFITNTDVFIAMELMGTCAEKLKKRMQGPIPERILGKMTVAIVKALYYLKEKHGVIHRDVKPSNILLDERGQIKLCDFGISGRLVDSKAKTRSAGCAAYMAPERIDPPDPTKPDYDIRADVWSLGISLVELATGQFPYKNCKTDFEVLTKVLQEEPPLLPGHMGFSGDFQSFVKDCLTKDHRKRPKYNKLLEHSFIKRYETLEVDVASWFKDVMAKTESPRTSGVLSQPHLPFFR

[4] = molecular target: Sigma intracellular receptor 2 (Homo sapiens) (UniProt Q5BJF2); assay: Selectivity interaction (GPCR panel (PDSP screen)) EUB0000311b TMEM97; conditions: at 10 µM
[5] = molecular target: T3, Serine/threonine-protein kinase NLK (Homo sapiens) (UniProt Q9UBE8); assay: Selectivity interaction (KinomeScan (DiscoverX)) EUB0001619a NLK; conditions: at 1 µM
T3 sequence (whole entry): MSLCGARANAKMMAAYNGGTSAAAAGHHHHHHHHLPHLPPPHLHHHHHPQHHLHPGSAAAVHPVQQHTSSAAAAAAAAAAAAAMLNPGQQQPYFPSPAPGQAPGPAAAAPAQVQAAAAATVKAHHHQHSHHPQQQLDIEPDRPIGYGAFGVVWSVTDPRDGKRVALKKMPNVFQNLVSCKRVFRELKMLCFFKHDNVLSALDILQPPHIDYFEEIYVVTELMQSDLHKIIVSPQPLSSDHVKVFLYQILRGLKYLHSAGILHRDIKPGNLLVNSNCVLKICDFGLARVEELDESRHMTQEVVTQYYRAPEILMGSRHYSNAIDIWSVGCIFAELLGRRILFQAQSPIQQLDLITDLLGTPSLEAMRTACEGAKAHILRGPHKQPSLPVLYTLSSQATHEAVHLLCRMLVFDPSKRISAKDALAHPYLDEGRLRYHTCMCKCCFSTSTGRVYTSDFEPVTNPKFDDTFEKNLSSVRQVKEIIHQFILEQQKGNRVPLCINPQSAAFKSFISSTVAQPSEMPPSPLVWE

[6] = molecular target: T4, Serine/threonine-protein kinase TAO1 (Homo sapiens) (UniProt Q7L7X3); assay: Selectivity interaction (KinomeScan (DiscoverX)) EUB0000666a TAOK1; conditions: at 10 µM
T4 sequence (whole entry): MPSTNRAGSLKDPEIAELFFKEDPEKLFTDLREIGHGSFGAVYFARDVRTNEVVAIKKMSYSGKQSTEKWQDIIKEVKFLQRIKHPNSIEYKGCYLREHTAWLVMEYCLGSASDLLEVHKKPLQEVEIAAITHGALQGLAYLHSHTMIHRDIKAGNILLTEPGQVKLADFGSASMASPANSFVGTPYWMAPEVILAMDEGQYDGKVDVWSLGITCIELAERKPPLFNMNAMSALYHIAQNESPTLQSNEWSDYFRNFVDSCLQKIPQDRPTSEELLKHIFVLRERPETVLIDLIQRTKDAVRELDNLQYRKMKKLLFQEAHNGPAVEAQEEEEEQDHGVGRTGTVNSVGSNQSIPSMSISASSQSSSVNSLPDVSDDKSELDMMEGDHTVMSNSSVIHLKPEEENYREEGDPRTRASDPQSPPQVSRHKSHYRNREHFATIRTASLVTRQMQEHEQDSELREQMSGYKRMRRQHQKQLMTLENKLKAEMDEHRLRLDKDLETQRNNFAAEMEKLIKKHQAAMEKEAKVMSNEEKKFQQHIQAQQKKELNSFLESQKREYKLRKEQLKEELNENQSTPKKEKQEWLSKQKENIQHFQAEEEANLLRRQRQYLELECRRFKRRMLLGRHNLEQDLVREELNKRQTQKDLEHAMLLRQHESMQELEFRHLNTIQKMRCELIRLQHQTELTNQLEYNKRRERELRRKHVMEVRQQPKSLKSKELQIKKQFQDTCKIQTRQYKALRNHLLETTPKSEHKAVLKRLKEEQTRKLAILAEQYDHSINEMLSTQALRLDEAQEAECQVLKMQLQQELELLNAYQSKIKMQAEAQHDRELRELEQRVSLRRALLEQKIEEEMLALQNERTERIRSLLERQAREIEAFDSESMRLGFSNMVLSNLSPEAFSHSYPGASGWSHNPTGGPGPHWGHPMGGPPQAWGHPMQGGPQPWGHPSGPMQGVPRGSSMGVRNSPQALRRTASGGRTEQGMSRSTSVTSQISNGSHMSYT

Chain of Mitogen-activated protein kinase kinase kinase kinase 1 (Homo sapiens) (Q92918 whole entry, looked up): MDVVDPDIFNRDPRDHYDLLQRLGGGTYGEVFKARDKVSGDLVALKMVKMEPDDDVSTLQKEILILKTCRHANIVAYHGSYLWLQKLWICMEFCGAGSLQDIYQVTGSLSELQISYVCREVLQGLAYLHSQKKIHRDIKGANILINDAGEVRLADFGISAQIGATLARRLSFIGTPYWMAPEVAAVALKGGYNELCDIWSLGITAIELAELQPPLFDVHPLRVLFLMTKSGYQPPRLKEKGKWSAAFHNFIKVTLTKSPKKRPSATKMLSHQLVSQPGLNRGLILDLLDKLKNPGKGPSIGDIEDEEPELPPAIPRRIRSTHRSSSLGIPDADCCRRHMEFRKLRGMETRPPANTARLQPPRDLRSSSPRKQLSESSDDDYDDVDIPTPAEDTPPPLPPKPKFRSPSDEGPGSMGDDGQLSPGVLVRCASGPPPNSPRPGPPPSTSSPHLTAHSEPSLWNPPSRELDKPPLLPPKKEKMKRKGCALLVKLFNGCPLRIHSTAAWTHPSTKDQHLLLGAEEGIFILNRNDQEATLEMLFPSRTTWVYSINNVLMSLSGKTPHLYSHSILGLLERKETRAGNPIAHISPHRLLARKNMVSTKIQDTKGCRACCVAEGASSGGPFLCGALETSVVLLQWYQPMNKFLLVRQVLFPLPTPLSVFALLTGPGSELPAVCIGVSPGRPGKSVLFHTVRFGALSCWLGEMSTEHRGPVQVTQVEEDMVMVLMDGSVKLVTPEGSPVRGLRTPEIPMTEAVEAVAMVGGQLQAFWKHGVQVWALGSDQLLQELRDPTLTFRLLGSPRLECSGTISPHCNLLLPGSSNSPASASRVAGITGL
Chain of Sigma intracellular receptor 2 (Homo sapiens) (Q5BJF2 whole entry): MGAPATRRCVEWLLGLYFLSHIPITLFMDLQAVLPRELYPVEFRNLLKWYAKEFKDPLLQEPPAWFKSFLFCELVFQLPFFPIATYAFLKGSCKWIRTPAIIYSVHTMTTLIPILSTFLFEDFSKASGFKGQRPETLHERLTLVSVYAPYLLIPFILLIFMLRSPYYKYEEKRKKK

SMILES: COc1cc(Nc2nc(C)cc(-c3cnn4nc(OC)ccc34)n2)cc(C(F)(F)F)c1
% of control [1]: 100%

SMILES: C=CC(=O)Nc1cc(-n2c(=O)ccc3cnc4ccc(-c5ccc(NS(C)(=O)=O)cc5)cc4c32)ccc1C
% of control ([2]; at 1 µM): 100%
% of control ([2]; at 10 µM): 94%
% of control ([3]; at 1 µM): 49%
% of control ([3]; at 10 µM): 6.1%

% of inhibition [4]: 78.3%
SMILES: CCc1ccccc1C(=O)Nc1n[nH]c2c(C)c(F)c(C3C(C#N)=C(C)N(C)C(C)=C3C#N)cc12 [BAY-3827]

SMILES: N#Cc1cccc(-c2c[nH]c3ncnc(N4CCOCC4)c23)c1
% of control [5]: 85%

SMILES: O=C(NOC[C@H](O)CO)c1ccc(F)c(F)c1Nc1ccc(I)cc1F
% of control [6]: 100%
